Counter-ions that a name gives are not always drawn. Like-named read-outs stand apart in the source and are kept apart here.

Experiment [1] addresses 5-HT2B receptor (rat stomach fundus) (Rattus norvegicus, UniProt P30994).
In experiment [2] the target is T1, 5-HT2A receptor (rat jugular vein) (Rattus norvegicus, UniProt P14842).
T1 construct: rat jugular vein which is mediated by 5-HT2A receptors; from tissue; host or cells: rat jugular vein
Briefly: Antagonism of serotonin response in rat jugular vein (apparent antagonist dissociation constant). Conditions: vs serotonin, ± standard error, read-out: 5-HT2A (Jugular) -log KB (converted). The procedure:
Apparent antagonist dissociation constants (KB) were determined for each concentration of antagonist according to the following equation: […]
where [B] is the concentration of the antagonist and dose ratio is the ED50 of the agonist in the presence of the antagonist divided by the control ED50. Generally, parallel shifts in the concentration-response curves occurred in the presence of antagonists. The results were expressed as the negative logarithm of the KB (i.e., -log KB). Calculations were completed using known methods.
The values in Table II are expressed as -log KB ± standard error (number of data points). The 5-HT2B value represents the negative log of the concentration of an antagonist that will produce a two fold dextral shift in the concentration response curve to serotonin in the rat stomach fundus which is mediated by 5-HT2B receptors. Likewise, the 5-HT2A value represents the negative log of the concentration of an antagonist that will produce a two fold dextral shift in the concentration response curve to serotonin in the rat jugular vein which is mediated by 5-HT2A receptors. The blank values in Table II indicate that the compound was not tested in the indicated assay.

A further experiment addresses T2, 5HT2C (Homo sapiens, UniProt P28335).
T2 construct: expressed in transfected cells
T2 sequence (P28335 33-458): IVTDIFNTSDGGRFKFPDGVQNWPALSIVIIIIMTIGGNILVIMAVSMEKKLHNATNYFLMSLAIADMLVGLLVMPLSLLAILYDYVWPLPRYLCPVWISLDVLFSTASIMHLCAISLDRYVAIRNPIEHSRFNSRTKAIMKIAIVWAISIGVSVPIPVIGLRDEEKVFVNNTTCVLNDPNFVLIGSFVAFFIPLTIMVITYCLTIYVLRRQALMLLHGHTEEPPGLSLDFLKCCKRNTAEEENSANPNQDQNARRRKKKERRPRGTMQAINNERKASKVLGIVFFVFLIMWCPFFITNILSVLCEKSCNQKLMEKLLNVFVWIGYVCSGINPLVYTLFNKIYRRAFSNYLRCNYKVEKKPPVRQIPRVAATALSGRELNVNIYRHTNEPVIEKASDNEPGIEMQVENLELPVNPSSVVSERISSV
Briefly: Human cell assay, 5HT2C cells. Format: binding. Conditions: Cell assays use Human Cells. The procedure:
Compounds of this invention were tested using substantially the procedure describe in the Radioligand assay supra. and are summarized in Table I infra. The values in Table I are expressed as Ki values calculated as described supra. The blank values in Table I indicate that the compound was not tested in the corresponding assay.

The next experiment addresses Human 5-HT2A (Homo sapiens, UniProt P28223). Briefly: [125I]DOI radioligand binding, human 5-HT2A.
The target of another experiment is T3, Human 5-HT2B (Homo sapiens, UniProt P41595).
T3 construct: expressed in transfected cells
The experiment in a line: [3H]Serotonin radioligand binding, human 5-HT2B.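 Also: competition of tritiated serotonin binding to cell membranes, bound radioactivity on filters counted by liquid scintillation, IC50 from logistic fits converted to Ki with the Cheng-Prusoff equation.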 Conditions: Cell assays use Human Cells; read-out: Ki, 5HT2B Cells.

The subject of the next experiment is distal colon. The experiment in a line: Functional in vitro assay: antagonism of serotonin contraction of rat distal colon longitudinal muscle. The conditions noted are these: vs serotonin. The text has this: Functional In vitro Assay:
Sprague-Dawley rats (200-250g; Laboratory Supply, Indianapolis, Ind.) were sacrificed by cervical dislocation and 8 cm segment of distal colon was removed and washed in ice cold modified Kreb's solution of the following composition (millimolar): Nacl, 118.2; Kcl, 4.6; Cacl2. H2 O, 1.6; KH2 PO4, 1.2; MgSO4, 1.2; dextrose, 10.0; and NaHCO3, 24.8. The colon was mounted on a glass rod and the longitudinal muscle layer with attached myenteric plexi was removed and mounted in organ baths, containing above described Kreb's solution maintained at 37° C. and equilibrated with 95% O2 and 5% CO2. Tissues were placed under 2 g tension and allowed to stabilize for 1 hour. Isometric contractions were recorded as changes in grams of force using grass FT03 transducers and MI^2 - computerized dynograph system. Cumulative concentration-response curves for serotonin were obtained by a stepwise increase in concentration after washing out the preceding concentration for 10-15 minutes. Each agonist concentration remained in contact with the tissue for 5 minutes. Maximum response to each concentration was determined and digitized. EC50 values were taken as the concentration of agonist that produced half maximal contraction. After control responses were obtained, tissues were incubated with an appropriate concentration of antagonist for 15 minutes. Response to serotonin were then repeated in the presence of an antagonist. Concentration-response utilized only one concentration of antagonist per tissue. Apparent antagonist dissociation constants (KB) were determined for each concentration of antagonist according to the following equation:
KB =[B]/(dose ratio-1), where [B] is the concentration of the antagonist and dose ratio is the ED50 of the agonist in the presence of antagonist divided by the control ED50. The results were expressed as the negative logarithm of the KB (i.e., -log KB) (Br. J. Pharmacol. Methods 4:4165, (1980).
The functional in vitro method described supra. was used to test compounds of this invention. Values are expressed as pKi and pA2 (-log KB). The following table illustrates the results obtained when the compounds were tested using the Radioligand assay supra. (pKi) and the functional in vitro method described supra. (pA2)

A further experiment has as its target rat 5-HT2B receptor (Rattus norvegicus, UniProt P30994). The experiment in a line: biochemical. Format: binding. Conditions: Radioligand assay, Table III.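 Also: displacement of [3H]5-HT from membranes of suspension cells carrying cloned rat 5-HT2B receptor, incubated 15 min at 37 °C or 2 h at 0 °C, filter-bound radioactivity counted by scintillation.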
For a further experiment, the system named is colon. The experiment in a line: In vivo inhibition of serotonin-induced colonic motility in anesthetized rats. The conditions noted are these: Rattus norvegicus, iv; anesthetized Sprague-Dawley rats. The procedure: Sprague-Dawley Rats (250-300 g) were fasted overnight. The rats were anesthetized with urethane ([…]) delivered intraperitoneally. The abdominal cavity was opened and strain guage transducers were sewn on the antimesenteric border of the colon. The transducers were oriented to record circular muscle contractions. The animal body temperature was maintained by a heating pad. An intravenous catheter was inserted into the jugular vein for drug administration. The carotid blood pressure was also monitored. Output of the strain guage transducers was graphed on a Beckman Dynograph. Baseline motility was monitored for 30 minutes. At the end of the 30 minute period, a vehicle control dose was administered and motility was recorded for an additional 15 minutes. A serotonin dose response was developed. Successively higher doses of serotonin were administered at 15 minute intervals. An ED50 dose was calculated, which was the dose producing half maximal contraction. In antagonist experiments, historical ED50 dose was administered to validate the experimental set up. Next, a dose of antagonist was given. The motility was monitored for 15 minutes. […] Motility was evaluated by measuring the number of contractions and multiplying them by the amplitude of contractions over a set time period to provide a Motility Index. The percent inhibition was calculated from the vehicle (no antagonist) treated group. […]

The mark [3] stands for this setting: rat stomach fundus, vs serotonin, ± standard error, read-out: 5-HT2B (Fundus) -log KB (converted).
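For 5-HT2B (Fundus) -log KB in this document: isometric contraction of isolated male Wistar rat stomach fundus strips, serotonin concentration-response curves after antagonist incubation, KB from dose ratio of agonist potency versus control curve.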

T1 sequence (P14842 whole entry): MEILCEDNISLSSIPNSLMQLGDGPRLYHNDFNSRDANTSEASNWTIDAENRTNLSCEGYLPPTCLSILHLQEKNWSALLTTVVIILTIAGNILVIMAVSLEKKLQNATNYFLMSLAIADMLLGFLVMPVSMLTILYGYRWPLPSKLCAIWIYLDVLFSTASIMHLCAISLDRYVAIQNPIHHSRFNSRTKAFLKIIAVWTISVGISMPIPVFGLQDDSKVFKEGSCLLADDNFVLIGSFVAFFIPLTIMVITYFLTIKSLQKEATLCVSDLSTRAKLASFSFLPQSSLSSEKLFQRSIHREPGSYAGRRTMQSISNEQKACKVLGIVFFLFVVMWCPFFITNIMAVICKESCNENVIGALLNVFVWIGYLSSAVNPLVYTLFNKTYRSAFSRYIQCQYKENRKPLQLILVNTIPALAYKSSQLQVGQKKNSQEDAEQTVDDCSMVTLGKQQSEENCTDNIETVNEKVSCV
Sequence of 5-HT2B receptor (rat stomach fundus) (P30994 whole entry): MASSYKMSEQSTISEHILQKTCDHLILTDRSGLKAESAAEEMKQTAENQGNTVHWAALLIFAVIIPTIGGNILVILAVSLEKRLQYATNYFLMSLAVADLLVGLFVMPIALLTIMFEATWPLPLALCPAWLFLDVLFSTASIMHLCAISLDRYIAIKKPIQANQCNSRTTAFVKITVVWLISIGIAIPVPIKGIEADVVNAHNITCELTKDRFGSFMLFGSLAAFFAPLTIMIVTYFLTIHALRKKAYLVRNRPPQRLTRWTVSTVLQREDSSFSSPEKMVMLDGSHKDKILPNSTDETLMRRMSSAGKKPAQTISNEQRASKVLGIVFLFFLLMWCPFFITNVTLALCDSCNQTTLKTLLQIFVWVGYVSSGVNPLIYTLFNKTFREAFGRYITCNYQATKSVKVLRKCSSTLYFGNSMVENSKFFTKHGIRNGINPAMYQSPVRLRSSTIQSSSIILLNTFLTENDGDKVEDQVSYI
Sequence of Human 5-HT2A (P28223 whole entry): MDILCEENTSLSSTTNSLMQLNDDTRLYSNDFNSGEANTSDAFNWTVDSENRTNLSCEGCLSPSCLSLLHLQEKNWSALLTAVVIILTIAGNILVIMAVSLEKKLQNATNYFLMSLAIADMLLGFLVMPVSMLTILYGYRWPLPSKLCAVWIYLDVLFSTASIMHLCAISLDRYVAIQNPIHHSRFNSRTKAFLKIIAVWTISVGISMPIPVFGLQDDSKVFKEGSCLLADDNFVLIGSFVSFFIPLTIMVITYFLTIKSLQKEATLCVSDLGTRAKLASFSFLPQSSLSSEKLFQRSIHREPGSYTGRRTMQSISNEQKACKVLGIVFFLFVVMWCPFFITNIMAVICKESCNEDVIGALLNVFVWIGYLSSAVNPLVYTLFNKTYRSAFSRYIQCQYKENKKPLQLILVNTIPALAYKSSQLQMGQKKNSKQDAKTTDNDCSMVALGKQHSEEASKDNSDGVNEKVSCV
T3 sequence (P41595 whole entry): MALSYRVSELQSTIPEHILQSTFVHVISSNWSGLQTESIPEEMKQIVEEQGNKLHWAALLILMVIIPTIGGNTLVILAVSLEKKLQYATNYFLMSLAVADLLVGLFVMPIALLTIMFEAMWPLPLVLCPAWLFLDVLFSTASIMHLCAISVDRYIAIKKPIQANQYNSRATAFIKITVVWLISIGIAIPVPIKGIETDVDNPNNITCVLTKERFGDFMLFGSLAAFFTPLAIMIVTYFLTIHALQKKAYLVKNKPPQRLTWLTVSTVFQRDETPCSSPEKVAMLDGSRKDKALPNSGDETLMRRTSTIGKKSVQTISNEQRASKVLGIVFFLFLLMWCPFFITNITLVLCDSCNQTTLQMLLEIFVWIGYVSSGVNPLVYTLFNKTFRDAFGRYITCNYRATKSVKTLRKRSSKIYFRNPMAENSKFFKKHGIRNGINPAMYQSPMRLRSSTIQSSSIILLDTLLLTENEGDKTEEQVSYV
Sequence of rat 5-HT2B receptor (P30994 whole entry): as the sequence (P30994 whole entry) above

Regarding `COc1ccc(CC2NCCc3c2[nH]c2ccc(C)cc32)c(Cl)c1OC` (centres unmarked) [Example 36, 6-methyl-1-[(2-chloro-3,4-dimethoxyphenyl)-methyl]-1,2,3,4-tetrahydro-9H-pyrido[3,4-b]indole hydrochloride], the Kb is 0.000158 µM in experiment [1] (read-out: 5-HT2B (Fundus) -log KB (converted)) and 0.00724 µM in experiment [2].

With `Cc1ccc2[nH]c3c(c2c1)[C@@H]1CCCC[C@H]1NC3Cc1cccc2ccccc12` (stereo partly drawn) [Example 105, Trans-10-methyl-6-(1-naphthylmethyl)-2,3,4,4a,5,6,7,11c-octahydro-1H-indolo[2,3-c]quinoline, hydrochloride], the values for the Ki at 5HT2C, at Human 5-HT2A and at Human 5-HT2B were 0.195 µM, 0.0865 µM and 0.0221 µM, respectively.

On to `Cc1ccc2[nH]c3c(c2c1)[C@@H]1CCCC[C@H]1NC3` (relative stereo) [Example 95, Trans-10-methyl-2,3,4,4a,5,6,7,11c-octahydro-1H-indolo[2,3c]quinoline, hydrochloride], for which the Ki on 5HT2C came to 2.64 µM; at Human 5-HT2A it was 3.44 µM; on Human 5-HT2B, 0.84 µM.

For the compound `COc1cc2c(cc1OC)CC1(CC2)N[C@@H]2CCCC[C@H]2c2c1[nH]c1ccc(C)cc21` (stereo partly drawn) [Example 107, Trans-spiro-6,6-[2-(3,4-dimethoxy)-1,2,3,4-tetrahydronaphthyl]-10-methyl-2,3,4,4a,5,6,7,11a-octahydro-1H-indolo[2,3-c]quinidine, hydrochloride], the Ki on 5HT2C stood at 0.325 µM; on Human 5-HT2A it was 0.363 µM; at Human 5-HT2B, 0.178 µM.

`CCc1ccc2[nH]c3c(c2c1)CCNC3Cc1ccc(OC)c(OC)c1` (centres unmarked) [Example 17, 6-ethyl-1,2,3,4-tetrahydro-1-[(3,4-dimethoxyphenyl)methyl]-9H-pyrido[3,4b]indole]: the values for the Kb in experiment [1] (setting [3]) and in experiment [2] were 0.000347 µM and 0.0219 µM, respectively. The “pA2 (-log KB)” value in the experiment with distal colon stood at 6.2.

For the compound `CCCOc1ccc(CC2NCCc3c2[nH]c2ccc(C)cc32)cc1OC` (centres unmarked) [Example 31, 6-methyl-1-[(3-methoxy-4-propoxyphenyl)-methyl]-1,2,3,4-tetrahydro-9H-pyrido[3,4-b]indole], the values for the Kb in experiment [1] (setting [3]) and in experiment [2] were 0.00112 µM and 0.0513 µM, respectively.

Consider `Cc1ccc2[nH]c3c(c2c1)CCNC3Cc1cccc2ccccc12` (racemic) [Example 51, (±) 6-methyl-1-(1-naphthalenylmethyl)-1,2,3,4-tetrahydro-9H-pyrido [3,4-b]indole hydrochloride], for which the Kb in experiment [1] (setting [3]) was 0.000178 µM; in experiment [2] it was 0.00851 µM.

Turning to `COc1ccc(CC2NCCc3c2[nH]c2ccc(C)cc32)cc1OC` (centres unmarked) [Example 20, 6-methyl-1,2,3,4-tetrahydro-1-[(3,4-dimethoxyphenyl)methyl]-9H-pyrido[3,4b]indole hydrochloride], the “pA2 (-log KB)” value in the experiment with distal colon was 7.8. For the same compound, in experiment [2], the Kb is 0.0617 µM.

Consider `Cc1cc(Br)c2[nH]c3c(c2c1)CCNC3` [Example 73, 6-methyl-8-bromo-1,2,3,4-tetrahydro-9H-pyrido[3,4b]-indole], for which the pKi (as a rule, −log10 of the Ki, conventionally taken in molar units) at rat 5-HT2B receptor came out at 7.85. Also, the “pA2 (-log KB)” value with distal colon stood at 8.9. Also, the ED50 (as a rule, the midpoint of the dose-response relation) in the experiment with colon worked out at 3.2 mg/kg.

As to `COc1ccc(C(C)C2NCCc3c2[nH]c2cc(C)c(C)cc32)cc1OC` (racemic) [Example 41, (±) 6,7-dimethyl-1-[(3,4-dimethoxyphenyl)-1-ethyl]-1,2,3,4-tetrahydro-9H-pyrido[3,4-b]indole (Z)-2-butenedioate], the values for the Kb in experiment [1] (setting [3]) and in experiment [2] were 0.000155 µM and 0.0115 µM, respectively. Also, the Ki on rat 5-HT2B receptor (read-out: pKi (converted)) is 0.00646 µM. In the experiment on distal colon, the “pA2 (-log KB)” value was 7.2.

For `COc1ccc(CC2NCCc3c2[nH]c2cc(C)c(C)cc32)cc1OC` (centres unmarked) [Example 16, 6,7-dimethyl-1,2,3,4-tetrahydro-1-[(3,4-dimethoxyphenyl)methyl]-9H-pyrido[3,4b]indole], the Kb in experiment [1] was 0.000195 µM; in experiment [2], 0.00708 µM.

(Values after patent US5688807A, “Method for treating 5HT2B receptor related conditions” (Eli Lilly and Company, priority 1995, dated 1997).)
